Key:
human dental follicle = assay: Organoid formation from dissociated dental follicle; essentiality of medium factors assessed by omitting; format: cell-based; conditions: individual factor omitted from medium; P0, day 14 (FIG. 7a)
Excerpt: To develop epithelial organoids starting from human tooth, the dental follicle, known to encompass a large mesenchymal component but also the small epithelial epithelial cell rests of Malassez compartment, was isolated from unerupted third molars (wisdom teeth) extracted from adolescent patients (FIG. 1a). After tissue dissociation, the epithelial-mesenchymal cell mixture, comprising single cells and cell clusters, was embedded in Matrigel and cultured in a precisely defined medium. Organoids are typically established using a cocktail of growth and regulatory factors active in the tissue's epithelial stem cell niche. In case niche signals are unresolved, factors with a key role in the tissue's embryonic development are applied. […] The starting point is a medium containing these factors as well as generic organoid growth factors (such as WNT activators, nicotinamide, BMP inhibitor and p38 MAPK inhibitor), and assessed the essentiality of individual factors by omitting. […] Eventually, this systematic evaluation led to defining an optimized medium (further referred to as tooth organoid medium or TOM; Table 1), allowing to develop organoid lines from dental follicle samples at 100% efficiency (Table 2).
Third molars, predominantly unerupted, were extracted from adolescent patients (Table 2) at the ‘Oral and Maxillo-Facial Surgery-Imaging & Pathology (OMFS-IMPATH)’ unit of University Hospitals (UZ) Leuven after informed consent. The study was approved by the Ethics Committee Research UZ/KU Leuven (13/0104U). For sample collection, the gingiva was pushed aside after which the bone was perforated and the third molars with associated dental follicles were carefully isolated (without the visually distinct gingiva). dental follicle tissue was diligently peeled from the tooth and collected in Eagle's Minimum Essential Medium (αMEM; Sigma-Aldrich) supplemented with 10% foetal bovine serum (FBS; Sigma-Aldrich), 1% penicillin-streptomycin (Gibco) and 0.5% fungizone (Amphotericin B; Gibco). Following short rinsing steps in 70% ethanol and phosphate-buffered saline (PBS; Gibco), tissue was minced into small (˜1 mm^2) fragments, and further dissociated using collagenase VI (3 mg/ml; Thermo Fisher Scientific) and dispase II (4 mg/ml; Sigma-Aldrich) for 2 h at 37° C., while regularly pipetting up and down. The single cells and few small cell clusters were collected through a 40 μm cell strainer (Corning) while removing the remaining larger and fibrous tissue fragments.
(§1) The dissociated dental follicle cell material was resuspended in a mixture of serum-free defined medium (SFDM; Thermo Fisher Scientific; Table 4) and growth factor-reduced Matrigel (Corning) in a 30:70 ratio, which was plated in 48-well plates at 20,000 cells per 20 μL drop. After solidification, tooth organoid medium (TOM; Table 1), unless indicated otherwise, was supplemented. ROCK inhibitor (RI; 10 μM; Merck Millipore) was added the first day of seeding (or passaging). Organoid cultures were kept at 37° C. in a 1.9% CO2 incubator, and medium was refreshed every 2 to 3 days, each time supplemented with fungizone (0.1%).

tooth organoids [1] = assay: Effect of TGFβ and TGFβ receptor inhibitor on differentiation of organoids switched to MIM; format: cell-based, human
Excerpt: The above analyses exposed the enrichment of TGFβ pathway processes in tooth organoids subjected to ameloblast differentiation, in line with the proposed key role of TGFβ in amelogenesis. To assess the impact of the TGFβ pathway, organoids grown in TOM (P5) were switch to MIM with or without TGFβ (FIG. 6a).
During tooth root development, Hertwig's epithelial root sheath (HERS), from which epithelial cell rests of Malassez is eventually derived, undergoes EMT to develop to participate in periodontal ligament formation. It has previously been proposed that this EMT process is regulated by TGFβ, thereby triggering HERS/epithelial cell rests of Malassez cells to switch phenotype toward periodontal ligament cells.
Organoids (or dissociated dental follicle) were cultured in mineralization-inducing medium (MIM; Table 3; time schedule, see FIG. 4a and FIG. 10d) as described above. Recombinant human TGFβ1 (10 ng/ml; R&D) and the selective TGFβ receptor 1/2 inhibitor LY2109761 (5 μM; Selleckchem) were added when indicated.
(§2) Primary dental follicle tissue, organoids and assembloid were fixed in 4% PFA for 1h, embedded in paraffin, and sections subjected to hematoxylin and eosin (H&E), immunofluorescence or ARS staining. Antigen retrieval (10 mM citrate, pH6) and permeabilization (0.1% Triton X-100; Sigma-Aldrich) were performed. After incubation with primary and secondary antibodies (Table 5), sections were mounted with Vectashield (DAPI; Vector Laboratories) or DPX mountant (Sigma-Aldrich). Analysis was done using a Leica DM5500 epifluorescence microscope or a Zeiss Axioimager epifluorescence microscope. ImageJ software was used to quantify immunoreactive signal intensity and the ‘corrected total organoid fluorescence’ (CTOF) (=integrated density−(area of organoid×mean fluorescence of background readings).
(§3) RNA was extracted from dissociated dental follicle, organoids and assembloids using the GenElute Mammalian Total RNA Miniprep Kit (Sigma-Aldrich) according to the manufacturer's instructions. RNA was reverse-transcribed (RT) using the Superscript III First-Strand Synthesis Supermix (Thermo Fisher Scientific) and the resultant cDNA samples were analysed with SYBR Green-based quantitative PCR (qPCR) using the StepOnePlus Real-Time PCR System (AB Applied Biosystems). Forward and reverse primers (Table 6) were designed using PrimerBank and PrimerBlast. Glyceraldehyde-3-phosphate dehydrogenase (GAPDH) was included as housekeeping gene. Relative gene expression levels were calculated as ΔCt (Ct target−Ct housekeeping gene) and compared to control (see figure legends).

tooth organoids [2] = assay: EGF supplementation of tooth organoid cultures (TOM+EGF): proliferation and EMT; format: cell-based, human
Excerpt: To establish organoids from primary tissues, supplementation of EGF is generally found quintessential. […] In vivo, it is known that elevated EGF levels in the epithelial cell rests of Malassez compartment (as, for instance, occurring upon tooth movement, infection or trauma) activates epithelial cell rests of Malassez cell proliferation [Davis (2018) J. Vet. Dent. 35, 290-298]. […] It has been proposed that EMT induction in the epithelial cell rests of Malassez (as, for instance, occurring upon damaging tooth impact) enables the cells to migrate and eventually contribute to regeneration of neighbouring tissues [Davis (2018) J. Vet. Dent. 35, 290-298].
as §1, §2
as §3, with “Glyceraldehyde-3-phosphate dehydrogenase (GAPDH) was included as housekeeping gene.” left out

assembloids = assay: Assembloids (organoid-derived epithelial cells plus DPSCs) cultured in TOM+αMEM with TGFβ receptor inhibitor; format: cell-based, human; conditions: inhibitor 5 μM in TOM+αMEM
Experimental: It was chosen to use DPSCs to mimic early stages of tooth development in which DPSC-derived odontoblasts are in close contact with ameloblasts. The DPSCs, isolated, grown and characterized using well-defined standard protocols, were combined with organoid-derived epithelial stem cells in a layered approach, thereby forming composite organoids (assembloids) which were cultured in a mixture of TOM and the DPSC growth medium αMEM (FIG. 6d).
Whereas ODAM is not present in the straight (pure) epithelial organoids cultured in TOM (see above and FIG. 12c), it is expressed in the assembloids (FIG. 6d). This induction is not due to the addition of αMEM to TOM (FIG. 12c). […]
Primary dental follicle tissue, organoids and assembloid were fixed in 4% PFA for 1h, embedded in paraffin, and sections subjected to hematoxylin and eosin (H&E), immunofluorescence or ARS staining. […] ImageJ software was used to quantify immunoreactive signal intensity and the ‘corrected total organoid fluorescence’ (CTOF) (=integrated density−(area of organoid×mean fluorescence of background readings).
RNA was extracted from dissociated dental follicle, organoids and assembloids using the GenElute Mammalian Total RNA Miniprep Kit (Sigma-Aldrich) according to the manufacturer's instructions. […] Relative gene expression levels were calculated as ΔCt (Ct target−Ct housekeeping gene) and compared to control (see figure legends).

FGF2
need of the factor for efficient organoid formation (human dental follicle): needed for efficient organoid formation

Oc1ccc(-c2nc(-c3ccncc3)c(-c3ccc(F)cc3)[nH]2)cc1 [SB202190, reference compound]
need of the factor for efficient organoid formation (human dental follicle): needed for efficient organoid formation

NC(=O)c1cccnc1 [nicotinamide, reference compound]
need of the factor for efficient organoid formation (human dental follicle): needed for efficient organoid formation

insulin-like growth factor-1 [IGF1]
need of the factor for efficient organoid formation (human dental follicle): needed for efficient organoid formation

sonic hedgehog [SHH]
need of the factor for efficient organoid formation (human dental follicle): needed for efficient organoid formation

transforming growth factor-beta [TGFβ]
VIM expression in the epithelial (CK5+) organoids (tooth organoids [1]; MIM with TGFβ): further increased
AMTN gene expression (tooth organoids [1]; MIM with TGFβ 10 ng/ml, RT-qPCR): increased expression
expression of periodontal ligament-specific genes POSTN and COL3A1 (tooth organoids [1]; MIM with TGFβ, RT-qPCR): significantly stimulated
ODAM expression (immunofluorescence) (tooth organoids [1]; TOM-grown P5 organoids switched to MIM with TGFβ 10 ng/ml): further upregulated

epidermal growth factor [EGF]
number of proliferating (KI67+) cells in the organoids (tooth organoids [2]; EGF 50 ng/ml to initiating cultures, P0, day 7): increased number
proliferation (tooth organoids [2]; EGF 50 ng/ml, P0, day 14): decline in proliferation
EMT / VIM expression in the organoids' border (tooth organoids [2]; EGF 50 ng/ml, P0, day 14, colocalized with CK5 or P63): induction of an EMT process
VIM+ cells after EGF exposure following growth and expansion in TOM (tooth organoids [2]; P5, day 14, also cell migration out of organoids): appearance of VIM^+ cells

c1ccc(-c2nn3c(c2-c2ccnc4cc(OCCN5CCOCC5)ccc24)CCC3)nc1 [LY2109761, reference compound]
effect of TGFβ on ODAM and AMTN expression (tooth organoids [1]; inhibitor 5 μM added simultaneously with TGFβ in MIM): blocked
upregulated ODAM and AMTN expression in MIM (tooth organoids [1]; inhibitor 5 μM, without exogenous TGFβ): strongly reduced
AMTN expression in the assembloids (assembloids): reduced
ODAM protein expression in the assembloids (assembloids): completely abolished

B1: Noggin (protein, UniProt Q13253 28-232, looked up)
Noggin: QHYLHIRPAPSDNLPLVDLIEHPDPIFDPKEKDLNETLLRSLLGGHYDPGFMATSPPEDRPGGGGGAAGGAEDLAELDQLLRQRPSGAMPSEIKGLEFSEGLAQGKKQRLSKKLRRKLQMWLWSQTFCPVLYAWNDLGSRFWPRYVKVGSCFSKRSCSVPEGMVCKPSKSVHLTVLRWRCQRRGGQRCGWIPIQYPIISECKCSC
need of the factor for efficient organoid formation (human dental follicle): needed for efficient organoid formation

B2: FGF8 (protein, UniProt P55075 23-233, looked up)
Fibroblast growth factor 8: QEGPGRGPALGRELASLFRAGREPQGVSQQHVREQSLVTDQLSRRLIRTYQLYSRTSGKHVQVLANKRINAMAEDGDPFAKLIVETDTFGSRVRVRGAETGLYICMNKKGKLIAKSNGKGKDCVFTEIVLENNYTALQNAKYEGWYMAFTRKGRPRKGSKTRQHQREVHFMKRLPRGHHTTEQSLRFEFLNYPPFTRSLRGSQRTWAPEPR
notes: fibroblast growth factor
need of the factor for efficient organoid formation (human dental follicle): needed for efficient organoid formation

B3: R-spondin 1 (protein, UniProt Q2MKA7 21-263, looked up)
R-spondin-1: SRGIKGKRQRRISAEGSQACAKGCELCSEVNGCLKCSPKLFILLERNDIRQVGVCLPSCPPGYFDARNPDMNKCIKCKIEHCEACFSHNFCTKCKEGLYLHKGRCYPACPEGSSAANGTMECSSPAQCEMSEWSPWGPCSKKQQLCGFRRGSEERTRRVLHAPVGDHAACSDTKETRRCTVRRVPCPEGQKRRKGGQGRRENANRNLARKESKEAGAGSRRRKGQQQQQQQGTVGPLTSAGPA
need of the factor for efficient organoid formation (human dental follicle): needed for efficient organoid formation

B4: FGF10 (protein, UniProt O15520 38-208, looked up)
Fibroblast growth factor 10: QALGQDMVSPEATNSSSSSFSSPSSAGRHVRSYNHLQGDVRWRKLFSFTKYFLKIEKNGKVSGTKKENCPYSILEITSVEIGVVAVKAINSNYYLAMNKKGKLYGSKEFNNDCKLKERIEENGYNTYASFNWQHNGRQMYVALNGKGAPRRGQKTRRKNTSAHFLPMVVHS
notes: fibroblast growth factor
need of the factor for efficient organoid formation (human dental follicle): needed for efficient organoid formation

Reference: US20250171743A1, “HUMAN TOOTH ORGANOIDS” (Katholieke Universiteit Leuven, priority 2022, published 2025)
